Reference: PubChem BioAssay AID2060495 (Molecular Pharmacology Branch, DTP, NCI, 2025)

System: 521955-158-R2-J5-PDC complex spheroid viability
Experiment: Anticancer human tumor 521955-158-R2-J5-PDC patient-derived pancreatic carcinoma cell line growth inhibition [GQUAD]
Settings: for IC50: curve of first compound; for viability, T/C: stronger effect = lower value
In short: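 Tumor cells were grown as complex spheroids with HUVEC endothelial cells and mesenchymal stem cells as stroma. G-quadruplex stabilizers were combined with targeted agents over half-log dilutions from near the clinical Cmax, or from 10 microM.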

[1] = second compound 0.0316 µM, first compound 0.0316 µM
[2] = second compound 0.0316 µM, first compound 0.1 µM
[3] = second compound 0.0316 µM, first compound 0.316 µM
[4] = second compound 0.0316 µM, first compound 1 µM
[5] = second compound 0.0316 µM, first compound 3.16 µM
[6] = second compound 0.0316 µM, first compound 10 µM
[7] = second compound 0.1 µM, first compound 0.0316 µM
[8] = second compound 0.1 µM, first compound 0.1 µM
[9] = second compound 0.1 µM, first compound 0.316 µM
[10] = second compound 0.1 µM, first compound 1 µM
[11] = second compound 0.1 µM, first compound 3.16 µM
[12] = second compound 0.1 µM, first compound 10 µM
[13] = second compound 0.316 µM, first compound 0.0316 µM
[14] = second compound 0.316 µM, first compound 0.1 µM
[15] = second compound 0.316 µM, first compound 0.316 µM
[16] = second compound 0.316 µM, first compound 1 µM
[17] = second compound 0.316 µM, first compound 3.16 µM
[18] = second compound 0.316 µM, first compound 10 µM
[19] = second compound 1 µM, first compound 0.0316 µM
[20] = second compound 1 µM, first compound 0.1 µM
[21] = second compound 1 µM, first compound 0.316 µM
[22] = second compound 1 µM, first compound 1 µM
[23] = second compound 1 µM, first compound 3.16 µM
[24] = second compound 1 µM, first compound 10 µM
[25] = second compound 3.16 µM, first compound 0.0316 µM
[26] = second compound 3.16 µM, first compound 0.1 µM
[27] = second compound 3.16 µM, first compound 0.316 µM
[28] = second compound 3.16 µM, first compound 1 µM
[29] = second compound 3.16 µM, first compound 3.16 µM
[30] = second compound 3.16 µM, first compound 10 µM
[31] = second compound 10 µM, first compound 0.0316 µM
[32] = second compound 10 µM, first compound 0.1 µM
[33] = second compound 10 µM, first compound 0.316 µM
[34] = second compound 10 µM, first compound 1 µM
[35] = second compound 10 µM, first compound 3.16 µM
[36] = second compound 10 µM, first compound 10 µM
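Note: spheroids exposed to agents for one week before reading.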
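Throughout, for viability, T/C: 100% = DMSO vehicle control viability.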

Compound: Nc1ccn(C2OC(CO)C(O)C2(F)F)c(=O)n1 (stereo not given) + CN(C)c1ccc(Nc2c3ccc(NC(=O)CCN4CCCC4)cc3nc3cc(NC(=O)CCN4CCCC4)ccc23)cc1
- IC50 (second compound 0.0316 µM): 774 nM
- IC50 (second compound 0.1 µM): 423 nM
- IC50 (second compound 0.316 µM): 434 nM
- IC50 (second compound 1 µM): 394 nM
- IC50 (second compound 3.16 µM): 157 nM
- IC50 (second compound 10 µM): 83 nM
- viability, T/C [1]: 76.5%
- viability, T/C [2]: 73.5%
- viability, T/C [3]: 66%
- viability, T/C [4]: 45.1%
- viability, T/C [5]: 24.1%
- viability, T/C [6]: 12.6%
- viability, T/C [7]: 76.6%
- viability, T/C [8]: 76.5%
- viability, T/C [9]: 54.5%
- viability, T/C [10]: 32.3%
- viability, T/C [11]: 19.5%
- viability, T/C [12]: 14.7%
- viability, T/C [13]: 65.2%
- viability, T/C [14]: 66.7%
- viability, T/C [15]: 56.9%
- viability, T/C [16]: 31.1%
- viability, T/C [17]: 17.1%
- viability, T/C [18]: 14.2%
- viability, T/C [19]: 71.7%
- viability, T/C [20]: 58.7%
- viability, T/C [21]: 57.1%
- viability, T/C [22]: 25.9%
- viability, T/C [23]: 12.5%
- viability, T/C [24]: 12%
- viability, T/C [25]: 61.6%
- viability, T/C [26]: 52.8%
- viability, T/C [27]: 43.2%
- viability, T/C [28]: 22.4%
- viability, T/C [29]: 12.5%
- viability, T/C [30]: 11.9%
- viability, T/C [31]: 64.8%
- viability, T/C [32]: 39.9%
- viability, T/C [33]: 41.1%
- viability, T/C [34]: 27%
- viability, T/C [35]: 17.2%
- viability, T/C [36]: 11.6%

Compound: CC1COCCN1c1cc(C2(S(C)(=N)=O)CC2)nc(-c2ccnc3[nH]ccc23)n1 (stereo not given) + CN(C)c1ccc(Nc2c3ccc(NC(=O)CCN4CCCC4)cc3nc3cc(NC(=O)CCN4CCCC4)ccc23)cc1
- IC50 (second compound 0.0316 µM): 879 nM
- IC50 (second compound 0.1 µM): 832 nM
- IC50 (second compound 0.316 µM): 1020 nM
- IC50 (second compound 1 µM): 850 nM
- IC50 (second compound 3.16 µM): 1330 nM
- IC50 (second compound 10 µM): 1380 nM
- viability, T/C [1]: 99.7%
- viability, T/C [2]: 93.1%
- viability, T/C [3]: 98%
- viability, T/C [4]: 44.1%
- viability, T/C [5]: 16.2%
- viability, T/C [6]: 17.2%
- viability, T/C [7]: 104%
- viability, T/C [8]: 112%
- viability, T/C [9]: 117%
- viability, T/C [10]: 38.4%
- viability, T/C [11]: 17.5%
- viability, T/C [12]: 16.8%
- viability, T/C [13]: 97.1%
- viability, T/C [14]: 99.2%
- viability, T/C [15]: 99%
- viability, T/C [16]: 50.6%
- viability, T/C [17]: 12.9%
- viability, T/C [18]: 13.7%
- viability, T/C [19]: 99.3%
- viability, T/C [20]: 93.8%
- viability, T/C [21]: 91.5%
- viability, T/C [22]: 43.3%
- viability, T/C [23]: 14.8%
- viability, T/C [24]: 14.5%
- viability, T/C [25]: 86.4%
- viability, T/C [26]: 78.4%
- viability, T/C [27]: 89.2%
- viability, T/C [28]: 61.5%
- viability, T/C [29]: 15.8%
- viability, T/C [30]: 14.8%
- viability, T/C [31]: 61%
- viability, T/C [32]: 76.7%
- viability, T/C [33]: 69.1%
- viability, T/C [34]: 58.9%
- viability, T/C [35]: 26.9%
- viability, T/C [36]: 20.5%

Compound: O=c1[nH]cc(F)c(=O)[nH]1 + Cc1[nH]c2ccc(F)cc2c1-c1nc2c3cccnc3c3ncccc3c2[nH]1
- IC50 (second compound 0.0316 µM): 3720 nM
- IC50 (second compound 0.1 µM): 4880 nM
- IC50 (second compound 0.316 µM): 3090 nM
- IC50 (second compound 1 µM): 2480 nM
- IC50 (second compound 3.16 µM): 2530 nM
- IC50 (second compound 10 µM): 2080 nM
- viability, T/C [1]: 110%
- viability, T/C [2]: 84.6%
- viability, T/C [3]: 76%
- viability, T/C [4]: 96.7%
- viability, T/C [5]: 55%
- viability, T/C [6]: 19.6%
- viability, T/C [7]: 99.6%
- viability, T/C [8]: 97.1%
- viability, T/C [9]: 90.7%
- viability, T/C [10]: 89.6%
- viability, T/C [11]: 67%
- viability, T/C [12]: 21.1%
- viability, T/C [13]: 90.9%
- viability, T/C [14]: 94.3%
- viability, T/C [15]: 104%
- viability, T/C [16]: 97.8%
- viability, T/C [17]: 48.9%
- viability, T/C [18]: 16.2%
- viability, T/C [19]: 95.2%
- viability, T/C [20]: 114%
- viability, T/C [21]: 91.1%
- viability, T/C [22]: 91.4%
- viability, T/C [23]: 38.9%
- viability, T/C [24]: 22%
- viability, T/C [25]: 106%
- viability, T/C [26]: 97.2%
- viability, T/C [27]: 107%
- viability, T/C [28]: 104%
- viability, T/C [29]: 37.1%
- viability, T/C [30]: 18.2%
- viability, T/C [31]: 105%
- viability, T/C [32]: 104%
- viability, T/C [33]: 103%
- viability, T/C [34]: 88.5%
- viability, T/C [35]: 28%
- viability, T/C [36]: 19.3%

Compound: CC(=O)O[C@H]1C(=O)[C@@]2(C)[C@H]([C@H](OC(=O)c3ccccc3)[C@]3(O)C[C@H](OC(=O)[C@H](O)[C@@H](NC(=O)c4ccccc4)c4ccccc4)C(C)=C1C3(C)C)[C@]1(OC(C)=O)CO[C@@H]1C[C@@H]2O + Cc1[nH]c2ccc(F)cc2c1-c1nc2c3cccnc3c3ncccc3c2[nH]1
- IC50 (second compound 0.0316 µM): < 31.6 nM
- IC50 (second compound 0.1 µM): < 31.6 nM
- IC50 (second compound 0.316 µM): < 31.6 nM
- IC50 (second compound 1 µM): < 31.6 nM
- IC50 (second compound 3.16 µM): < 31.6 nM
- IC50 (second compound 10 µM): < 31.6 nM
- viability, T/C [1]: 46.1%
- viability, T/C [2]: 34.1%
- viability, T/C [3]: 31%
- viability, T/C [4]: 30.8%
- viability, T/C [5]: 30.8%
- viability, T/C [6]: 25.6%
- viability, T/C [7]: 49%
- viability, T/C [8]: 43.9%
- viability, T/C [9]: 39%
- viability, T/C [10]: 31.2%
- viability, T/C [11]: 35.7%
- viability, T/C [12]: 29.9%
- viability, T/C [13]: 47.6%
- viability, T/C [14]: 37.5%
- viability, T/C [15]: 31.4%
- viability, T/C [16]: 27.5%
- viability, T/C [17]: 32.1%
- viability, T/C [18]: 24.2%
- viability, T/C [19]: 43.6%
- viability, T/C [20]: 41.5%
- viability, T/C [21]: 43.4%
- viability, T/C [22]: 31.5%
- viability, T/C [23]: 19.8%
- viability, T/C [24]: 33.5%
- viability, T/C [25]: 38.7%
- viability, T/C [26]: 36.7%
- viability, T/C [27]: 30.6%
- viability, T/C [28]: 32.5%
- viability, T/C [29]: 34.9%
- viability, T/C [30]: 30.2%
- viability, T/C [31]: 41.3%
- viability, T/C [32]: 41.9%
- viability, T/C [33]: 32.8%
- viability, T/C [34]: 40.2%
- viability, T/C [35]: 37.7%
- viability, T/C [36]: 39%

Compound: COc1cc(C2c3cc4c(cc3C(OC3OC5COC(C)OC5C(O)C3O)C3COC(=O)C23)OCO4)cc(OC)c1O (stereo not given) + CN(C)c1ccc(Nc2c3ccc(NC(=O)CCN4CCCC4)cc3nc3cc(NC(=O)CCN4CCCC4)ccc23)cc1
- IC50 (second compound 0.0316 µM): 771 nM
- IC50 (second compound 0.1 µM): 808 nM
- IC50 (second compound 0.316 µM): 689 nM
- IC50 (second compound 1 µM): 650 nM
- IC50 (second compound 3.16 µM): 551 nM
- IC50 (second compound 10 µM): 594 nM
- viability, T/C [1]: 109%
- viability, T/C [2]: 89.3%
- viability, T/C [3]: 65%
- viability, T/C [4]: 45.1%
- viability, T/C [5]: 30.1%
- viability, T/C [6]: 17.1%
- viability, T/C [7]: 82.9%
- viability, T/C [8]: 104%
- viability, T/C [9]: 76.5%
- viability, T/C [10]: 43.1%
- viability, T/C [11]: 32.5%
- viability, T/C [12]: 20.1%
- viability, T/C [13]: 94.2%
- viability, T/C [14]: 85.3%
- viability, T/C [15]: 69.5%
- viability, T/C [16]: 40.1%
- viability, T/C [17]: 25.6%
- viability, T/C [18]: 18.2%
- viability, T/C [19]: 89.5%
- viability, T/C [20]: 93.5%
- viability, T/C [21]: 55.8%
- viability, T/C [22]: 45.8%
- viability, T/C [23]: 28%
- viability, T/C [24]: 19.2%
- viability, T/C [25]: 97.5%
- viability, T/C [26]: 78.9%
- viability, T/C [27]: 61.4%
- viability, T/C [28]: 39%
- viability, T/C [29]: 26%
- viability, T/C [30]: 19.9%
- viability, T/C [31]: 79.1%
- viability, T/C [32]: 71%
- viability, T/C [33]: 55.2%
- viability, T/C [34]: 43%
- viability, T/C [35]: 36.1%
- viability, T/C [36]: 23.3%
